Results: US20100278849A1, “PROSTATIC ACID PHOSPHATASE ANTIGENS” (priority 2004, published 2010)
Where “and” joins values, the source holds several entries; their conditions need not be identical. Equal values may be shown once. Entries after “also recorded” stand apart in the source; their conditions may differ.

Key:
HLA-DRβ1*0101 = test: Proliferation of splenocytes from immunised HLA-DR1 mice with peptide-pulsed BM-DC (tritiated thymidine); format: cell-based; details: responding/total mice, after re-stimulation in vitro with relevant peptide
Method: (§1) HLA-A2.1/K^b mice were immunised with an emulsion consisting of 100 μg of the putative class-I peptide epitope and 100 μg of non-specific class-II peptide derived from hepatitis B virus in 50% incomplete Freund's adjuvant (IFA). HLA-DR4- and HLA-DR1-transgenic mice were immunised twice at one week interval with 100 μg of class-II peptide emulsified in 50% incomplete Freund's adjuvant (IFA) and 50% PBS. All vaccine were delivered as a 100 μl intradermal bolus inoculum at the base of the tail.
(§2) 0DC were generated using a method adapted from Inaba et al (Inaba et al. 1992). Briefly, femurs and tibias were harvested aseptically from non-immunised DR1 or DR4 transgenic mice and placed in sterile PBS supplemented with 50 IU/ml penicillin, 50 μg/ml streptomycin, and 0.25 μg/ml fungizone. The marrow was flushed out of the bone using BM-DC media (RPMI 1640 medium supplemented with 2 mM glutamine, 5% FCS, 10 mM Hepes, 501M 2-ME, 50 μg/ml penicillin, 50 μg/ml streptomycin, 0.25 μg/ml fungisone and 10% of supernatant collected from X-63 cells). The cells were washed once in BM-DC media and plated in 24-well plates at 10^6/well in 1 ml DC media and incubated at 37° C. in a 5% CO2 humidified atmosphere. On days 2 and 4, the non-adherent cells (T cells, B cells, granulocytes) were removed, and the remaining cells were cultured in fresh DC medium. After 7-9 days, clusters of loosely adherent DC were dislodged and collected by gently pipetting, before being washed and seeded in 24-well plates at 0.5×10^6 cells/well in 1 ml DC media. Peptides were added at 1 μg/well and the plates were incubated at 37° C. 1 μg/ml of LPS was added after 5 hours, and the plates were incubated overnight at 37° C. in a 5% CO2 in air-humidified atmosphere.
(§3) After 6 days, the spleens from immunised animals were collected and the cells flushed out using T cell media (RPMI+10% FCS+20 mM HEPES buffer+50 μM 2-mercaptoethanol+50 U/ml penicillin/streptomycin+0.25 μg/ml fungizone). The remaining splenic tissue was digested using an enzyme cocktail (0.1 U/ml DNAase (Sigma)+1.6 mg/ml collagenase (Sigma)) for 1 hour at 37° C. The cell suspension obtained was pooled with the flushed cells, washed once, and the splenocytes were plated in 24 well plates with 10 μg/ml of peptide at a density of 2.5×10^6/ml for FVB/N-DR1 or 3.5×10^6/ml for C57BL/6-DR4. Cells were also cultured with an irrelevant peptide as a control. To measure cytokine production, culture supernatants were collected on day 2 and 5 of the culture for the measurement of cytokine by ELISA.
Splenocytes from immunised animals cultured for 6 days in the presence of 10 μg of the test peptide were harvested, washed and counted. CD8+ T cells were depleted from the cell suspension using anti-CD8+ antibody coupled with magnetic beads (Dynal, UK) as per the manufacturers instructions. Cells were then washed in PBS and resuspended at 5×10^5/ml in T cell medium. 100 μl of T cells was then added to all wells. Anti-DR antibody (L243) or isotype control were added to some wells to confirm the MHC specificity of the T-cell response. LPS-treated dendritic cells were harvested, washed and incubated in 1 ml of DC medium with the addition of 10 íg of peptide at 37° C. for 5 hours. After washing, 10^3 peptide-pulsed DC were added to the relevant wells of lymphocyte cultures in 50 íl media. […] Plates were harvested onto 96 Uni/Filter (Packard), the scintillation liquid (Microscint 0, Packard) was added and the plates were counted on a Top-Count counter (Packard). […]

HLA-DRβ1*0401 = test: Proliferation of splenocytes from immunised HLA-DR4 mice with peptide-pulsed BM-DC (tritiated thymidine); format: cell-based
Method: as §1, §2, §3
[…] CD8+ T cells were depleted from the cell suspension using anti-CD8+ antibody coupled with magnetic beads (Dynal, UK) as per the manufacturers instructions. Cells were then washed in PBS and resuspended at 5×10^5/ml in T cell medium. 100 μl of T cells was then added to all wells. Anti-DR antibody (L243) or isotype control were added to some wells to confirm the MHC specificity of the T-cell response. LPS-treated dendritic cells were harvested, washed and incubated in 1 ml of DC medium with the addition of 10 íg of peptide at 37° C. for 5 hours. After washing, 10^3 peptide-pulsed DC were added to the relevant wells of lymphocyte cultures in 50 íl media. These plates were then incubated for 3 days at 37° C. in a 5% CO2 in air-humidified atmosphere. Tritriated thymidine was then added to the culture and incubated again for 18 hours. Plates were harvested onto 96 Uni/Filter (Packard), the scintillation liquid (Microscint 0, Packard) was added and the plates were counted on a Top-Count counter (Packard). Results are expressed in counts per minute (cpm) and as a means of the triplicate wells. Statistical analysis was performed using unpaired Student's t test. […]

IFN-γ [1] = test: Cytokine production by splenocytes of immunised FVB/N-DR1 mice, ELISA; format: cell-based
Method: as §3
(§4) Aliquots of supernatants were removed from CTL cultures on days 1 and 5 and on days 2 and 5 from CD4′ T cell cultures and stored at −20° C. until required. ELISA was used to quantitate concentrations of murine IFN-γ and IL-5 (R&D systems, UK).

IFN-γ [2] = test: IFN-γ ELISPOT of rested CD8-depleted T cells with peptide-pulsed BM-DC; format: cell-based, mice; details: BM-DC pulsed with PAP.161 versus Flu peptide
IFN-γ [3] = test: Cytokine production by splenocytes of immunised C57BL/6-DR4 mice, ELISA; format: cell-based; details: relevant versus irrelevant peptide
Method: as §3, §4
We further investigated HLA-DR class-II restricted responses to PAP peptides that were predicted to bind to HLA-DR1 and HLA-DR4 according to the evidence-based computer assisted algorithm […]. The peptides displaying high binding scores for both HLA-DR alleles were selected and further studied (Table 1). C57BL/6-DR4 mice were immunised with these predicted HLA-DR-restricted PAP and the proliferative and IFN-γ response to peptide stimulation in vitro was monitored by proliferation assays and cytokine measurements. PAP. 64 and PAP.

LNCaP cells = test: 51Chromium cytotoxicity assay of splenocytes from PAP.135 immunised mice against LNCaP cells; format: cell-based, human; details: LNCaP express HLA-A2 and PAP
Method: (c): Cytotoxicity against LNCaP cells by splenocytes derived from PAP.135 immunised mice. Results are representative of 10 mice and 2 individual experiments.
(§5) LNCaP is a human prostate cancer cell-line known to express HLA-A2 and PAP. Cells were propagated in RPMI 1640 media (GibcoBRL, UK) supplemented with 10% foetal calf serum (BioWhittaker, Belgium), 100 U/ml penicillin with 100 μg/ml streptomycin (GibcoBRL, UK), 5 ng/ml hydrocortisone and 5 ng/ml testosterone (Sigma, USA). […] Cells were grown in suspension in tissue culture flasks containing RPMI 1640 (GibcoBRL, UK) with 10% foetal calf serum (FCS) (BioWhittaker, Belgium) and 1% L-glutamine supplement (GibcoBRL, UK).
Target cells were pulsed overnight with test peptide or an irrelevant HLA-A2 binding epitope and labelled for 1 hour with 1.85 MBq ^51Chromium. For cytotoxicity assays involving tumour cell-lines, cells were treated with 100 U/ml IFN-γ for 24 hours prior to ^51Chromium labelling. Target cells were washed and allowed to stand in CTL media for 1 hour before washing again. […] HLA-A2 dependence was determined by the addition of anti-HLA-A2 antibody (Serotec, UK) to some wells. […] Supernatants were harvested and analysed using a Top Count™ gamma counter (Can berra-Packard, USA). Specific lysis was determined as follows: […]

RMAS-HLA-A2 cells = test: 51Chromium cytotoxicity assay of splenocytes from HLA-A2.1/Kb mice against peptide-pulsed RMAS cells; format: cell-based; details: for % cytoxicity at 50:1 ratio RMAS + irrel.: targets pulsed with irrelevant peptide
HLA-A2*0201 = HLA-A2*0201 (Homo sapiens, UniProt P04439, D140Y/D185E/D98H/E176V/E277Q/G131W/G231S/I119V/I121R/I166T/I218V/L300P/L318F/N151K/N90K/P208A/P217A/Q86G/Q94H/R138H/R169H/T345S); format: cell-based; details: peptide at 100, 10 and 1 μM; compared with positive control influenza M1 peptide; three independent experiments
IFN-γ [4] = test: IFN-γ release by splenocyte (CTL) cultures, ELISA; format: cell-based, mice
Method: After at least 7 and not more than 10 days, immunised animals were killed, and the spleens recovered into transport media. Spleens were gently macerated and flushed by injecting 10 ml “CTL culture media” (RPMI 1640, 1% L-glutamine, 10% FCS (PAA labs), 20 mM Hepes, 50 μM 2-mercaptoethanol, 50 U/ml penicillin, 500 U/ml streptomycin and 0.25 μg/ml fungizone) under pressure through a fine bore hypodermic needle introduced through the spleen capsule, thus facilitating the isolation of splenocytes. The remaining tissue was diced and digested for 1 hour at 37° C. using an enzyme cocktail (IMDM containing […] 2-ME, 100 U/ml penicillin+1000 U/ml streptomycin, 8 mg/ml collagenase and 1% DNAse). The flushed and digested cell populations were washed and pooled, and then seeded into 15 wells of a 24 well-plate at 5×10^6 cells/well in 2 ml of media containing 20 μg peptide. The test peptide was added to 12 wells, while 3 wells received an irrelevant class-I peptide as a control. Splenocyte cultures were incubated for 5 days at 37° C.
as §4
Figures represent the ratio of IFN-γ released by splenocytes stimulated in vitro by PAP.135 to IFN-γ released by splenocytes stimulated in vitro by an irrelevant HLA-A2*0201 CTL epitope. The mean results of 10 experiments using splenocytes derived from PAP.135-immunised mice are given, and 1 in which splenocytes derived from non-immunised (naive mice) were used.

LCL cells = test: 51Chromium cytotoxicity assay of splenocytes from PAP.135 immunised mice against LCL cells; format: cell-based, human; details: LCL express HLA-A2 but not PAP
Method: as §5
Target cells were pulsed overnight with test peptide or an irrelevant HLA-A2 binding epitope and labelled for 1 hour with 1.85 MBq ^51Chromium. For cytotoxicity assays involving tumour cell-lines, cells were treated with 100 U/ml IFN-γ for 24 hours prior to ^51Chromium labelling. Target cells were washed and allowed to stand in CTL media for 1 hour before washing again. Target cells and effector CTLs were co-incubated at various ratios in 96-well plates in a final volume of 200 μl for 4 hours at 37° C. HLA-A2 dependence was determined by the addition of anti-HLA-A2 antibody (Serotec, UK) to some wells. Maximum and spontaneous release of ^51Chromium was ascertained by incubating target cells with 2% SDS or media alone, respectively. Supernatants were harvested and analysed using a Top Count™ gamma counter (Can berra-Packard, USA). Specific lysis was determined as follows: […]

Row | Sequence | number of HLA-DR1 mice whose splenocytes demonstrated specific proliferation (HLA-DRβ1*0101) | proliferative response to peptide-pulsed BM-DC (HLA-DRβ1*0401; 7 days in vitro stimulation, CD8+ T cells removed, rested 7 days) | effect of anti-HLA-DR antibody (L243) on proliferation (HLA-DRβ1*0401; not blocked by isotype control) | proliferation of splenocytes from immunised HLA-DR4 mice (HLA-DRβ1*0401; re-stimulated in vitro with peptide for 5 days) | number of HLA-DR4 mice whose splenocytes demonstrated specific proliferation (HLA-DRβ1*0401; responding/total mice, after re-stimulation in vitro with relevant peptide) | IFN-γ or IL-50 (cytokine) production of splenocytes (IFN-γ [1]) | IFN-γ production, ELISPOT (IFN-γ [2]) | IFN-γ production by splenocytes (IFN-γ [3]) | lysis of LNCaP cells (LNCaP cells) | inhibition of peptide specific lysis by HLA-A2 blocking antibody (RMAS-HLA-A2 cells; PAP.135-pulsed targets, splenocytes from PAP.135 immunised mice, two separate experiments) | lysis of PAP.135 pulsed RMAS-HLA-A2 cells (RMAS-HLA-A2 cells; splenocytes from PAP.135 immunised mice) | % cytoxicity at 50:1 ratio RMAS + irrel. (RMAS-HLA-A2 cells; splenocytes from PAP.135-immunised mice, 50:1) | % cytoxicity at 50:1 ratio RMAS + PAP.135 (RMAS-HLA-A2 cells; splenocytes from naïve (non-immunised) mouse stimulated with PAP.135 in vitro, 50:1) [%] | % cytoxicity at 50:1 ratio RMAS + irrel. (RMAS-HLA-A2 cells; splenocytes from naïve (non-immunised) mouse, 50:1) [%] | lysis of PAP.135 pulsed RMAS-HLA-A2 cells (RMAS-HLA-A2 cells; splenocytes from non-immunised (naïve) mice stimulated by PAP.135 in vitro) | binding to HLA-A2 (T2 cells) (HLA-A2*0201) | IFN-γ release by splenocytes stimulated in vitro (IFN-γ [4]; PAP.135-immunised mice, versus irrelevant epitope, day 5) | IFN-γ release by splenocytes stimulated in vitro (IFN-γ [4]; non-immunised (naïve) mice) | IFN-γ release (PAP.135:irrel.) (IFN-γ [4]; ratio, splenocytes from naïve (non-immunised) mouse) | lysis of LCL cells (LCL cells)
1 | CPRFQELESETLKSE (listed as Homo sapiens) [PAP.161] | 3 out of 6 and 3/6 | Significant proliferation; also recorded: consistently confirmed; also recorded: responded specifically | blocked in the presence of HLA-DR antibody; also recorded: blocked by the addition of L243 antibody; also recorded: inhibited by the addition of L243 antibody; also recorded: blocked by the presence of L243 antibody | Specific proliferation | 6 out of 8 and 4/6 | no production of cytokines could be detected in high enough levels | high amount of IFN-γ in peptide specific manner; also recorded: producing IFN-γ | produced in large quantities |  |  |  |  |  |  |  |  |  |  |  | 
2 | ILLWQPIPV (listed as Homo sapiens) [PAP.135] |  |  |  |  |  |  |  |  | dose-dependent lysis; also recorded: highly cytotoxic | approximately 80% | lysed RMAS-HLA-A2 cells, pulsed with PAP.135 in a dose dependent manner; also recorded: highly cytotoxic | 2% and 7% and 9% and 4% and 1% and 5% and 3% | 13 | 11 | failed to demonstrate cytotoxicity; also recorded: unable to lyse target cells | strong binding; also recorded: strongest HLA-A2 binding; also recorded: higher affinity to T2 cells | significantly more IFN-γ; also recorded: significantly upregulated | independent of the peptide used for in vitro stimulation | 1.1 | not susceptible to lysis
